What was measured:
[1] = Pharmacokinetics, biliary excretion and metabolism of compound K in bile cannulated and non-bile cannulated rats; format: in vivo, SD rats; conditions: after compound K IV 2 mg/kg
Method: SD rats were randomly divided into two groups: the non-bile cannulated control group and the bile cannulated group. For the bile cannulated rats, the femoral artery, femoral vein, and bile duct were cannulated with polyethylene tubes (PE-50 and PE-10; Jungdo, Seoul, Korea) under light anesthesia with isoflurane. For the control group, the femoral artery and femoral vein were cannulated with PE-50. Compound K was injected intravenously via the femoral vein at 2 mg/kg. Blood samples (approximately 200 µL) were collected from the femoral artery at 0, 0.25, 0.5, 1, 2, 4, and 8 h after the compound K injection. After each blood sampling, normal saline was injected into the femoral vein to compensate for blood loss. Bile samples were collected every 2 h for a total of 12 h. The blood samples were centrifuged at 16,000× g for 10 min, and 50 μL aliquots of plasma and 50 μL aliquots of bile were stored at −80 °C until the compound K analysis. In the non-bile cannulated rats, the complete contents of the entire gastrointestinal tract were collected using a […] filled with 30 mL pre-warmed saline. The contents were homogenized with tissue homogenizer, and 50 μL aliquots of intestinal fecal homogenates were stored at −80 °C until the analysis. The 50 μL samples of plasma, urine, 10% fecal homogenates, bile, and intestinal fecal homogenates were each mixed with 60 μL of IS (20 ng/mL 13C-caffeine in water) and 600 μL of methyl tert-butyl ether (MTBE). The mixtures were vortexed vigorously for 10 min and centrifuged at 16,000× g for 5 min. After centrifugation, the samples were frozen at −80 °C for 2 h. […] The residue was reconfigured with 200 μL of 80% methanol consisting of 0.1% formic acid, and a 10 μL aliquot was injected into the liquid chromatography–tandem mass spectrometry (LC–MS/MS) system. Compound K and PPD concentrations were analyzed using a modified LC-MS/MS method of Jin et al. with an Agilent 6430 triple quadrupole LC-MS/MS system (Agilent, Wilmington, DE, USA). […] The mobile phase consisted of 0.1% formic acid in water (8%) and 0.1% formic acid in methanol (92%) at a flow rate of 0.15 mL/min. Pharmacokinetic parameters were estimated using non-compartmental methods (WinNonlin version 2.0, Pharsight Co., Certara, NJ, USA).

[2] = design: method as in PMID 28955238; conditions: humans, single oral 200 mg compound K tablet, cited from earlier work
[3] = design: method as in PMID 16302287, PMID 32148404, PMID 30013338, PMID 26680316; conditions: cited from earlier work
Caco-2 cells = system: Caco-2 cells; design: method as in PMID 16302287, PMID 32148404, PMID 30013338, PMID 26680316; conditions: cited from earlier work
[4] = Pharmacokinetic study after intravenous compound K (2 mg/kg) in SD rats: plasma, feces, urine
[5] = Pharmacokinetic study after intravenous compound K (2 mg/kg) in ICR mice: plasma, feces, urine
[6] = rats, after compound K IV 2 mg/kg
[7] = mice, after compound K IV 2 mg/kg

CC(C)=CCCC(C)(O)C1CCC2(C)C1C(O)CC1C3(C)CCC(O)C(C)(C)C3CCC12C [PPD, 20(S)-protopanaxadiol]
presence in bile samples collected over 12 h ([1]; bile-cannulated rats): without PPD | detection in plasma samples ([1]; bile-cannulated rats, 2 mg/kg): could not be detected | detection in plasma samples at 8 h ([1]; control rats (non-bile cannulated), not present in 2 h sample): detected | amount in intestinal fecal samples, 12 h compared to 2 h ([1]; rats without bile cannulation): greater in the 12 h samples compared to the 2 h samples | Cmax ([2]; fasting): 5.7 ng/mL | Tmax ([2]; fasting): 24.5 h | AUC ratio of PPD to compound K [2]: 0.04 | LogP value [3]: 5.53 | permeability (Caco-2 cells): 1.15e-06 cm/s | concentration at 48 h ([4]; SD, rat, plasma, iv, 2 mg/kg): < 5 ng/mL | recovery of PPD relative to that of compound K in feces ([4]; rat feces, after compound K IV 2 mg/kg): 3.4 fold | metabolic ratio (PPD to compound K ratio) in plasma ([4]; rat plasma, after compound K IV 2 mg/kg): 0.2–1.6 | Recovery48 h Feces ([4]; rat, after compound K IV 2 mg/kg, over 48 h (Table 4)): 46.6 ± 4.9 % of Dose | detection in plasma and fecal samples [4, 6]: detected | detection in urine samples [4, 6]: not detected | concentration at 48 h ([5]; ICR, mouse, plasma, iv, 2 mg/kg): < 5 ng/mL | detection in plasma and fecal samples [5, 7]: detected | detection in urine samples [5, 7]: not detected | recovery of PPD relative to that of compound K in feces ([5]; mouse feces, after compound K IV 2 mg/kg): 1.2 fold | metabolic ratio (PPD to compound K ratio) in plasma ([5]; mouse plasma, after compound K IV 2 mg/kg): 0.02–0.08 | Recovery48 h Feces ([5]; mouse, after compound K IV 2 mg/kg, over 48 h (Table 4)): 34.4 ± 5.8 % of Dose
